Source: patent US9085550B2, “Ligands for estrogen related receptors and methods for synthesis of said ligands” (CITY OF HOPE, priority 2005, dated 2015)

Experiments:
[1] = molecular target: T1, HRHN-GAL (yeast GAL4 DNA binding domain without receptor sequences) (Saccharomyces cerevisiae, UniProt P04386); assay: GAL4 reporter transactivation assay in CV-1 cells, control vector without receptor; assay type: cell-based, monkey
T1 construct: expressed in transfected cells; host or cells: CV-1

[2] = molecular target: T2, GAL-hERRa (human ERRα ligand binding domain fused to GAL4 DNA binding domain) (Homo sapiens, UniProt P11474); assay: GAL4 reporter transactivation assay in CV-1 cells, GAL-hERRa; assay type: cell-based
T2 construct: expressed in transfected cells; host or cells: CV-1
T2 sequence (P11474 193-421 limits assumed): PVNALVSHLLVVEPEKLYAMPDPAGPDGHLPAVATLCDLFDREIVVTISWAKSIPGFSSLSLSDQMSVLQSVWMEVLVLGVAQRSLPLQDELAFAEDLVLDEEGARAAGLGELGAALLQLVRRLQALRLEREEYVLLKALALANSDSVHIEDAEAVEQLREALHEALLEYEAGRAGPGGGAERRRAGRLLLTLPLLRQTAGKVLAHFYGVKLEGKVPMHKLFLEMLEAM

[3] = molecular target: T3, GAL-L-hERRb (human ERRβ ligand binding domain fused to GAL4 DNA binding domain) (Homo sapiens, UniProt O95718); assay: GAL4 reporter transactivation assay in CV-1 cells, GAL-L-hERRb; assay type: cell-based
T3 construct: expressed in transfected cells; host or cells: CV-1
T3 sequence (O95718 208-432 limits assumed): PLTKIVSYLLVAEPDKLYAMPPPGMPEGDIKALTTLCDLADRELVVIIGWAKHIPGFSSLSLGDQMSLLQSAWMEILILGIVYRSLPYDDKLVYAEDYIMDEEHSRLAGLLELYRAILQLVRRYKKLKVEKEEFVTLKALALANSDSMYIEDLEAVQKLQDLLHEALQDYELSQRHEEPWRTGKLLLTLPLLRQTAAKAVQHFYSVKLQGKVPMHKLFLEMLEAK

[4] = molecular target: T4, GAL-mERRg (mouse ERRγ ligand binding domain fused to GAL4 DNA binding domain) (Mus musculus, UniProt P62509); assay: GAL4 reporter transactivation assay in CV-1 cells, GAL-mERRg; assay type: cell-based
T4 construct: expressed in transfected cells; host or cells: CV-1
T4 sequence (P62509 233-457 limits assumed): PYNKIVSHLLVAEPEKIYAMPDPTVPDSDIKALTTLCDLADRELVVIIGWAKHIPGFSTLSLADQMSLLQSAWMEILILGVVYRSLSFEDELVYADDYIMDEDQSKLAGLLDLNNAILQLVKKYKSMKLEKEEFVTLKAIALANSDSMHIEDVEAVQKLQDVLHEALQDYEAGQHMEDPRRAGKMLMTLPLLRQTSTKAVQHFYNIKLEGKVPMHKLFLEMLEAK

[5] = molecular target: T5, human ERα (Homo sapiens, UniProt P03372); assay: ERE-TK-luc reporter transactivation assay in CV-1 cells, full-length hERa; assay type: cell-based
T5 construct: Human ERα and ERβ were examined as full-length proteins using an estrogen receptor responsive reporter construct; expressed in transfected cells; host or cells: CV-1
T5 sequence (P03372 1-595): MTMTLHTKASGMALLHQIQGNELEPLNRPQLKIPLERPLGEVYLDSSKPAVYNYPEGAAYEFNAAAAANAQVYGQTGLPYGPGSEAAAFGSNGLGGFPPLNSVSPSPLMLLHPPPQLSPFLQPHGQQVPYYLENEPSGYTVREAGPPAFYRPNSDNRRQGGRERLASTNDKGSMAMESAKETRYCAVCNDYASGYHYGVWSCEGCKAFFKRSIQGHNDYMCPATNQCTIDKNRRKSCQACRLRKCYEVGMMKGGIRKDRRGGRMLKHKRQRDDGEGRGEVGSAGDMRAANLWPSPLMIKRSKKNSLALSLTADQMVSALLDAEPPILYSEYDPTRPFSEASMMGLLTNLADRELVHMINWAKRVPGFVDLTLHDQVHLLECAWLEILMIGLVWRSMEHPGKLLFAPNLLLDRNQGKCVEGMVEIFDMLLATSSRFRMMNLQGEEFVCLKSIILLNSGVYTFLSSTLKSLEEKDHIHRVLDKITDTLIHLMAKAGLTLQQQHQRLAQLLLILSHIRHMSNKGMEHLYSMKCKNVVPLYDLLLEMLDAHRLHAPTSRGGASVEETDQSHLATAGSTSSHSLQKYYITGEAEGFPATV
Description: (§1) Human ERα and ERβ were examined as full-length proteins using an estrogen receptor responsive reporter construct.
(§2) Suitable reporter gene constructs are well known to skilled workers in the fields of biochemistry and molecular biology. […] Other vectors known in the art can be used in the methods of the present invention.
(§3) CV-1 cells for the activation assays were grown in Dulbecco's modified Eagle's medium supplemented with 10% resin charcoal-stripped fetal bovine serum, 50 U/ml penicillin G and 50 μg/ml streptomycin sulfate (DMEM-FBS) at 37° C. in 5% CO2. One day prior to transfection, cells were plated to 50-80% confluence using phenol red free DMEM-FBS.

[6] = molecular target: T6, human ERβ (Homo sapiens, UniProt Q92731); assay: ERE-TK-luc reporter transactivation assay in CV-1 cells, full-length hERb; assay type: cell-based
T6 construct: Human ERα and ERβ were examined as full-length proteins using an estrogen receptor responsive reporter construct; expressed in transfected cells; host or cells: CV-1
T6 sequence (Q92731 whole entry): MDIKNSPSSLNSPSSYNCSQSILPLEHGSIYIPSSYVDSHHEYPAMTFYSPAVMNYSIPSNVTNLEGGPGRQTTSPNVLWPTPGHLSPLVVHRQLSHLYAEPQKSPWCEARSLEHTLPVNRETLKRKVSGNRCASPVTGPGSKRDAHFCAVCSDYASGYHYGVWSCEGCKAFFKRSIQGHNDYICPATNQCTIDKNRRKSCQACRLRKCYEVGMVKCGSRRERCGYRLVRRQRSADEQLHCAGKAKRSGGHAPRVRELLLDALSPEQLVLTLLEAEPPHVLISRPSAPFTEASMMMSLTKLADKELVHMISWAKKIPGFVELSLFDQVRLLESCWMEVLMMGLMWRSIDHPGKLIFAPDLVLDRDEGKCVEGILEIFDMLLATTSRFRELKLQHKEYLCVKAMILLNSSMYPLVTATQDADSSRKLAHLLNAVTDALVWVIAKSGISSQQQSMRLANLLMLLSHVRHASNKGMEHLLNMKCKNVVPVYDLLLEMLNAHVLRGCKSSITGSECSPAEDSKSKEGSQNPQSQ
Description: as §1, §2, §3

[7] = molecular target: T7, ERRγ (Homo sapiens, UniProt P62508); details: background statement; cited from earlier work
T7 sequence (P62508 1-458): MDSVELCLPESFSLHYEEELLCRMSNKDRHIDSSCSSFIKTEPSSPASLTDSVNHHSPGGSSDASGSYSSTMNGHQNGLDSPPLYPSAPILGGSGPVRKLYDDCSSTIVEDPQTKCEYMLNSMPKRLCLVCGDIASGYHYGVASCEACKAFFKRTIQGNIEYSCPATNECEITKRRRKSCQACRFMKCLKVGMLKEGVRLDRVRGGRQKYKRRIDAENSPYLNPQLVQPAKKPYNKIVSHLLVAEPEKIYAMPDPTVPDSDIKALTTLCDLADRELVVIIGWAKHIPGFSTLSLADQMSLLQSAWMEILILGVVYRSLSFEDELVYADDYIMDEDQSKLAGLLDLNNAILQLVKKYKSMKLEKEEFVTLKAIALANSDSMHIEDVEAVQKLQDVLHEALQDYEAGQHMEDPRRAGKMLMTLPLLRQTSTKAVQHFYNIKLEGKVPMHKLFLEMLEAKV

[8] = CV-1, reporter 0.42:vector 0.00875:PGC-1a 0.035, 30 μM
[9] = CV-1, reporter 0.42:vector 0.00875, no PGC-1a, 30 μM

T1 sequence (P04386 1-147): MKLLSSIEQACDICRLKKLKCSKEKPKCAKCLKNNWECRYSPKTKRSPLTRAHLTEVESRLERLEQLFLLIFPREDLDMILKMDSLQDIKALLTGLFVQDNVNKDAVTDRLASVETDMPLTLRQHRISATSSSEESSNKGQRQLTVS

## CCc1ccc(C=NNC(=O)c2ccc(O)cc2)s1 [DY164, 4-Hydroxy-benzoic acid (5-ethyl-thiophen-2-ylmethylene)-hydrazide]
[1]; reporter 0.42:vector 0.00875, no PGC-1a, 30 μM
  Fold activation, HRHN-GAL: 1.46 fold
[1]; reporter 0.42:vector 0.00875:PGC-1a 0.035, 30 μM
  Fold activation, HRHN-GAL + PGC-1a: 1.62 fold
[2]; [8]
  Fold activation, GAL-hERRa + PGC-1a: 2.75 fold
[2]; [9]
  Fold activation, GAL-hERRa: 1.74 fold
[2]; in the presence of PGC-1a
  Activation of ERRα: can activate
[3]; [8]
  Fold activation, GAL-L-hERRb + PGC-1a: 2.34 fold
[3]; [9]
  Fold activation, GAL-L-hERRb: 1.89 fold
[3]; in the presence of PGC-1a
  Activation of ERRβ: can activate
[4]; [8]
  Fold activation, GAL-mERRg + PGC-1a: 2.45 fold
[4]; [9]
  Fold activation, GAL-mERRg: 2.10 fold
[4]; in the presence of PGC-1a
  Activation of ERRγ: can activate
[5]; Table 7, CV-1, drug conc 30 μM
  Fold Activation, ERE-TK-luc, hERa: 1.30 fold
[5]; specificity for ERRs
  Activation of ERa: do not activate
[6]; Table 7, CV-1, drug conc 30 μM
  Fold Activation, ERE-TK-luc, hERb: 1.74 fold
[6]; specificity for ERRs
  Activation of ERb: do not activate
other
  melting point: 194.5 °C

## O=C(NN=Cc1cccc(C(F)(F)F)c1Cl)c1ccc(O)cc1 [DY165, 4-Hydroxy-benzoic acid (2-chloro-3-trifluoromethyl-benzylidene)-hydrazide]
other
  melting point: 261.5 °C

## Cc1ccc(C=NNC(=O)c2ccc(O)cc2)s1 [DY166, 4-Hydroxy-benzoic acid (5-methyl-thiophen-2-ylmethylene)-hydrazide]
other
  melting point: 215.7 °C

## O=C(NN=Cc1ccc(C(F)(F)F)cc1)c1ccc(O)cc1 [DY168, 4-Hydroxy-benzoic acid (4-trifluoromethyl-benzylidene)-hydrazide]
other
  melting point: 260.5 °C

## O=C(NN=Cc1ccc(C(F)(F)F)c([N+](=O)[O-])c1)c1ccc(O)cc1 [DY170, 4-Hydroxy-benzoic acid (3-nitro-4-trifluoromethyl-benzylidene)-hydrazide]
other
  melting point: 279.6 °C

## Cc1cc(C)c(C=NNC(=O)c2ccc(O)cc2)[nH]1 [DY171, 4-Hydroxy-benzoic acid (3,5-dimethyl-1H-pyrrol-2-ylmethylene)-hydrazide]
other
  melting point: 261.2 °C

## Cc1[nH]c(C=NNC(=O)c2ccc(O)cc2)c(C)c1Br [DY172, 4-Hydroxy-benzoic acid (4-bromo-3,5-dimethyl-1H-pyrrol-2-ylmethylene)-hydrazide]
other
  melting point: 235.4 °C

## Cc1cc(C=NNC(=O)c2ccc(O)cc2)oc1C [DY173, 4-Hydroxy-benzoic acid (4,5-dimethyl-furan-2-ylmethylene)-hydrazide]
other
  melting point: 251.4 °C

## CCc1ccc(C=NNC(=O)c2ccc(O)cc2)o1 [DY175, 4-Hydroxy-benzoic acid (5-ethyl-furan-2-ylmethylene)-hydrazide]
other
  melting point: 60.5 °C

## Oc1nc(Cl)nc(NN=Cc2cc(C(F)(F)F)cc(C(F)(F)F)c2)n1 [DY176, 4-[N′-(3,5-Bis-trifluoromethyl-benzylidene)-hydrazino]-6-chloro-[1,3,5]triazin-2-ol]
other
  melting point: 258.3 °C

## COc1cc(/C=C(\C#N)C(=O)Nc2nnc(C(F)(F)F)s2)ccc1OCc1ccc(C(F)(F)F)cc1C(F)(F)F [XCT790]
[7]
  Activity on ERRγ: no activity
